Patent US20260166162A1, “CARBON CHAIN SUBSTANCE FOR REGULATING TRANSMEMBRANE TRANSPORT AND FLUIDITY OF CELL MEMBRANES, AND PREPARATION AND USE THEREOF” (priority 2022, published 2026)

Legend:
Epithelial cells = experiment: Interaction of GFP-labelled complexes with cell membrane of epithelial cells (Example II-52, Table II-30); assay type: cell-based; settings: GFP-labelled complex, epithelial cells pretreated 4 hours, n=3
Procedure: The fatty acids were combined with water-soluble small molecules to form a complex, which were labeled with GFP fluorescence to detect cell membrane fluorescence. […] After the cells were stably adhered, the water-soluble fatty acid complexes in the following table were added to the cell culture medium. […] The medium with the drug was pipetted and replaced with normal DMEM medium. […] The green fluorescence intensity was analyzed by imageJ (see Table II-30, n=3).

Hela cells = experiment: Cell membrane fluidity (Laurdan fluorescence recovery) in Hela cells; assay type: cell-based

CCCCCCCCCCCCCC(=O)OCC(O)C1OC(=O)C(O)=C1O (stereo not drawn) [Vc-tetradecanoic acid]
Mean fluorescence intensity (Epithelial cells; 0 Hours after medium replaced): 115.4 ± 4.6
Mean fluorescence intensity (Epithelial cells; 2 Hours after medium replaced): 100.2 ± 3.7
Mean fluorescence intensity (Epithelial cells; 4 Hours after medium replaced): 87.2 ± 4.6
Mean fluorescence intensity (Epithelial cells; 8 Hours after medium replaced): 41.2 ± 9.4
Mean fluorescence intensity (Epithelial cells; 12 Hours after medium replaced): 33.6 ± 5.2
Mean fluorescence intensity (Epithelial cells; 24 Hours after medium replaced): 27.5 ± 7.3

CCCCCCCCC(=O)OCC(O)C1OC(=O)C(O)=C1O (stereo not drawn) [Vc-nonanoic acid]
Mean fluorescence intensity (Epithelial cells; 0 Hours after medium replaced): 129.5 ± 6.7
Mean fluorescence intensity (Epithelial cells; 2 Hours after medium replaced): 115.6 ± 6.8
Mean fluorescence intensity (Epithelial cells; 4 Hours after medium replaced): 93.7 ± 4.2
Mean fluorescence intensity (Epithelial cells; 8 Hours after medium replaced): 46.3 ± 5.7
Mean fluorescence intensity (Epithelial cells; 12 Hours after medium replaced): 36.4 ± 5.6
Mean fluorescence intensity (Epithelial cells; 24 Hours after medium replaced): 33.0 ± 7.0

CCCCCC=CCC=CCCCCCCCC(=O)OC(C)C(N)C(=O)O (stereo not drawn) [Thr-linoleic acid]
Mean fluorescence intensity (Epithelial cells; 0 Hours after medium replaced): 127.9 ± 6.6
Mean fluorescence intensity (Epithelial cells; 2 Hours after medium replaced): 122.3 ± 4.7
Mean fluorescence intensity (Epithelial cells; 4 Hours after medium replaced): 102.0 ± 1.5
Mean fluorescence intensity (Epithelial cells; 8 Hours after medium replaced): 65.2 ± 5.6
Mean fluorescence intensity (Epithelial cells; 12 Hours after medium replaced): 45.0 ± 2.5
Mean fluorescence intensity (Epithelial cells; 24 Hours after medium replaced): 41.5 ± 7.2

CCCCCCCC(=O)NCCCCC(N)C(=O)O (stereo not drawn) [Lys-n-octanoic acid]
Mean fluorescence intensity (Epithelial cells; 0 Hours after medium replaced): 103.4 ± 3.1
Mean fluorescence intensity (Epithelial cells; 2 Hours after medium replaced): 99.3 ± 7.9
Mean fluorescence intensity (Epithelial cells; 4 Hours after medium replaced): 92.4 ± 7.7
Mean fluorescence intensity (Epithelial cells; 8 Hours after medium replaced): 45.4 ± 4.7
Mean fluorescence intensity (Epithelial cells; 12 Hours after medium replaced): 30.4 ± 7.5
Mean fluorescence intensity (Epithelial cells; 24 Hours after medium replaced): 24.2 ± 8.5

CCCCCCCCCCCCCCCCCC(=O)NCCCCC(N)C(=O)O (stereo not drawn) [Lys-stearic acid]
Fluorescence recovery rate % (Hela cells; 2 nM, 20 s): 64.38%
Fluorescence recovery rate % (Hela cells; 2 nM, 40 s): 65.33%
Fluorescence recovery rate % (Hela cells; 2 nM, 60 s): 66.78%
Fluorescence recovery rate % (Hela cells; 2 nM, 80 s): 65.32%
Fluorescence recovery rate % (Hela cells; 5 nM, 20 s): 63.98%
Fluorescence recovery rate % (Hela cells; 5 nM, 40 s): 64.03%
Fluorescence recovery rate % (Hela cells; 5 nM, 60 s): 64.52%
Fluorescence recovery rate % (Hela cells; 5 nM, 80 s): 64.77%
Fluorescence recovery rate % (Hela cells; 10 nM, 20 s): 64.41%
Fluorescence recovery rate % (Hela cells; 10 nM, 40 s): 64.81%
Fluorescence recovery rate % (Hela cells; 10 nM, 60 s): 65.40%
Fluorescence recovery rate % (Hela cells; 10 nM, 80 s): 65.86%
Fluorescence recovery rate % (Hela cells; 50 nM, 20 s): 65.08%
Fluorescence recovery rate % (Hela cells; 50 nM, 40 s): 65.47%
Fluorescence recovery rate % (Hela cells; 50 nM, 60 s): 65.55%
Fluorescence recovery rate % (Hela cells; 50 nM, 80 s): 66.26%
Fluorescence recovery rate % (Hela cells; 50 μM, 20 s): 65.84%
Fluorescence recovery rate % (Hela cells; 50 μM, 40 s): 71.51%
Fluorescence recovery rate % (Hela cells; 50 μM, 60 s): 75.97%
Fluorescence recovery rate % (Hela cells; 50 μM, 80 s): 80.33%
Fluorescence recovery rate % (Hela cells; 100 μM, 20 s): 64.77%
Fluorescence recovery rate % (Hela cells; 100 μM, 40 s): 70.54%
Fluorescence recovery rate % (Hela cells; 100 μM, 60 s): 73.46%
Fluorescence recovery rate % (Hela cells; 100 μM, 80 s): 78.44%
Mean fluorescence intensity (Epithelial cells; 0 Hours after medium replaced): 105.3 ± 5.2
Mean fluorescence intensity (Epithelial cells; 2 Hours after medium replaced): 103.4 ± 2.7
Mean fluorescence intensity (Epithelial cells; 4 Hours after medium replaced): 98.3 ± 2.5
Mean fluorescence intensity (Epithelial cells; 8 Hours after medium replaced): 56.5 ± 5.6
Mean fluorescence intensity (Epithelial cells; 12 Hours after medium replaced): 46.7 ± 8.5
Mean fluorescence intensity (Epithelial cells; 24 Hours after medium replaced): 39.0 ± 5.3

CCCCCCCCCCC(=O)OC(C)C(N)C(=O)O (stereo not drawn) [Thr-undecanoic acid]
Mean fluorescence intensity (Epithelial cells; 0 Hours after medium replaced): 129.5 ± 7.6
Mean fluorescence intensity (Epithelial cells; 2 Hours after medium replaced): 123.5 ± 3.5
Mean fluorescence intensity (Epithelial cells; 4 Hours after medium replaced): 118.7 ± 5.7
Mean fluorescence intensity (Epithelial cells; 8 Hours after medium replaced): 43.6 ± 9.3
Mean fluorescence intensity (Epithelial cells; 12 Hours after medium replaced): 35.3 ± 4.0
Mean fluorescence intensity (Epithelial cells; 24 Hours after medium replaced): 24.6 ± 3.8

CCC=CCC=CCC=CCC=CCC=CCCCC(=O)NCCCCC(N)C(=O)O (stereo not drawn) [Lys-EPA]
Mean fluorescence intensity (Epithelial cells; 0 Hours after medium replaced): 123.3 ± 8.8
Mean fluorescence intensity (Epithelial cells; 2 Hours after medium replaced): 119.2 ± 3.7
Mean fluorescence intensity (Epithelial cells; 4 Hours after medium replaced): 109.4 ± 1.7
Mean fluorescence intensity (Epithelial cells; 8 Hours after medium replaced): 66.4 ± 4.7
Mean fluorescence intensity (Epithelial cells; 12 Hours after medium replaced): 39.4 ± 5.8
Mean fluorescence intensity (Epithelial cells; 24 Hours after medium replaced): 32.5 ± 4.5

NC(COC(=O)CCCCCCCCCCCCCCCCC(=O)O)C(=O)O (stereo not drawn) [Ser-octadecanedioic acid]
Mean fluorescence intensity (Epithelial cells; 0 Hours after medium replaced): 136.2 ± 8.5
Mean fluorescence intensity (Epithelial cells; 2 Hours after medium replaced): 127.3 ± 1.6
Mean fluorescence intensity (Epithelial cells; 4 Hours after medium replaced): 102.3 ± 4.4
Mean fluorescence intensity (Epithelial cells; 8 Hours after medium replaced): 76.2 ± 4.6
Mean fluorescence intensity (Epithelial cells; 12 Hours after medium replaced): 53.9 ± 7.2
Mean fluorescence intensity (Epithelial cells; 24 Hours after medium replaced): 42.4 ± 5.5

CCCCCCCCCCCCCCCC(=O)OC(C)C(N)C(=O)O (stereo not drawn) [Thr-palmitic acid]
Mean fluorescence intensity (Epithelial cells; 0 Hours after medium replaced): 123.3 ± 6.6
Mean fluorescence intensity (Epithelial cells; 2 Hours after medium replaced): 124.4 ± 7.5
Mean fluorescence intensity (Epithelial cells; 4 Hours after medium replaced): 119.5 ± 4.1
Mean fluorescence intensity (Epithelial cells; 8 Hours after medium replaced): 69.2 ± 7.5
Mean fluorescence intensity (Epithelial cells; 12 Hours after medium replaced): 45.3 ± 5.8
Mean fluorescence intensity (Epithelial cells; 24 Hours after medium replaced): 42.5 ± 5.7

CCCCCCCCCC(=O)OCC(N)C(=O)O (stereo not drawn) [Ser-n-decanoic acid]
Mean fluorescence intensity (Epithelial cells; 0 Hours after medium replaced): 115.4 ± 4.4
Mean fluorescence intensity (Epithelial cells; 2 Hours after medium replaced): 113.3 ± 6.4
Mean fluorescence intensity (Epithelial cells; 4 Hours after medium replaced): 108.3 ± 4.4
Mean fluorescence intensity (Epithelial cells; 8 Hours after medium replaced): 75.5 ± 2.7
Mean fluorescence intensity (Epithelial cells; 12 Hours after medium replaced): 56.4 ± 2.4
Mean fluorescence intensity (Epithelial cells; 24 Hours after medium replaced): 39.5 ± 5.7

CCCCCCCCCCCCC(=O)OC(C)C(N)C(=O)O (stereo not drawn) [Thr-tridecaneoic acid]
Mean fluorescence intensity (Epithelial cells; 0 Hours after medium replaced): 106.5 ± 6.4
Mean fluorescence intensity (Epithelial cells; 2 Hours after medium replaced): 104.3 ± 7.8
Mean fluorescence intensity (Epithelial cells; 4 Hours after medium replaced): 96.6 ± 2.6
Mean fluorescence intensity (Epithelial cells; 8 Hours after medium replaced): 53.5 ± 2.6
Mean fluorescence intensity (Epithelial cells; 12 Hours after medium replaced): 42.5 ± 4.2
Mean fluorescence intensity (Epithelial cells; 24 Hours after medium replaced): 39.0 ± 4.3

CCC/C=C/C(=O)OCC(N)C(=O)O (stereo not drawn) [Ser-t-2-hexenoic acid]
Mean fluorescence intensity (Epithelial cells; 0 Hours after medium replaced): 104.3 ± 5.2
Mean fluorescence intensity (Epithelial cells; 2 Hours after medium replaced): 101.3 ± 8.6
Mean fluorescence intensity (Epithelial cells; 4 Hours after medium replaced): 95.4 ± 4.5
Mean fluorescence intensity (Epithelial cells; 8 Hours after medium replaced): 39.9 ± 8.4
Mean fluorescence intensity (Epithelial cells; 12 Hours after medium replaced): 32.5 ± 3.6
Mean fluorescence intensity (Epithelial cells; 24 Hours after medium replaced): 29.8 ± 5.2
